One assay has as its target CDK6 (Homo sapiens (Human), UniProt Q00534). The assay is described as follows: In vitro kinase test (LANCE Ultra), CDK6. It is filed as biochemical. The source says: (§1) Recombinant CDK1/CCNB1 and CDK9/CCNT were purchased from BPS; CDK2/CCNA1, CDK4/CCND1 and CDK6/CCND1 were purchased from Invitrogen; CDK4/CycD3 and CDK6/CycD3 were purchased from Carna. Adenosine triphosphate (ATP) was purchased from Life tech. Substrate Ulight-4EBP1 and the corresponding detection antibody were purchased from Perkinelmer. The detection system was Perkinelmer's LANCE Ultra system.
(§2) In the kinase test, a compound to be tested was 1:3 diluted for 8 gradient points, added into a reaction plate, and then added an appropriate amount of recoinbinase. A buffer [50 mM HEPES […], 10 mM MgCl2, 3 mM MnCl2, 1 mM EGTA, 0.01% Tween-20, 1 mM TCEP] containing ATP/Ulight-4EBP1 premix with predetermined concentration was subsequently added, and the kinase reaction was started at room temperature. A test solution pre-mixed with 10 mM EDTA and detection antibody was added after a suitable reaction time, and then the fluorescence value was read on Tecan infinite pro after reacting for 1 hour at room temperature. The IC50 was calculated using a four-factor model fitting in a XLfit software.

The target in the next assay is CDK4 (Homo sapiens (Human), UniProt P11802). The assay is described as follows: In vitro kinase test (LANCE Ultra), CDK4. It is filed as biochemical.
Description: as §1, §2
A general note: TR-FRET usually uses a lanthanide donor and a delayed reading to cut background.

CDK6, sequence (Q00534 whole entry, looked up): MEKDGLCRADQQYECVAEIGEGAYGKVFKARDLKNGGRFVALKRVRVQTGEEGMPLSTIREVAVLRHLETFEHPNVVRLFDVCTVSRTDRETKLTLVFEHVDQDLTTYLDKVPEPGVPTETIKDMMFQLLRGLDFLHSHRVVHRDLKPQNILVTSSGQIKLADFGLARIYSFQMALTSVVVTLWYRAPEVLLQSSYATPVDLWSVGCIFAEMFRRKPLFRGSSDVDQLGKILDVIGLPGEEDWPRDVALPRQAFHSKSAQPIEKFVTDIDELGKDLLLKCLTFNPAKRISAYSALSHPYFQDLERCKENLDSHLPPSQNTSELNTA
CDK6, sequence (P24385 whole entry partner, looked up): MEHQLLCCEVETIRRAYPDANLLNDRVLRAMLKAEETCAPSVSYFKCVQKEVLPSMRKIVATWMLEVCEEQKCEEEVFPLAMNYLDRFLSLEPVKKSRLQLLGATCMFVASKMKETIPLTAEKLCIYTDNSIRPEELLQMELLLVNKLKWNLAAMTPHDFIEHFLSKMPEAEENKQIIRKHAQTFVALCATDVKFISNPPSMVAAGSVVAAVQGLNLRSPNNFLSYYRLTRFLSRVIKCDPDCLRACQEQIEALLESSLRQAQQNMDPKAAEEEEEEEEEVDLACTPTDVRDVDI
CDK4, sequence (P11802 whole entry, looked up): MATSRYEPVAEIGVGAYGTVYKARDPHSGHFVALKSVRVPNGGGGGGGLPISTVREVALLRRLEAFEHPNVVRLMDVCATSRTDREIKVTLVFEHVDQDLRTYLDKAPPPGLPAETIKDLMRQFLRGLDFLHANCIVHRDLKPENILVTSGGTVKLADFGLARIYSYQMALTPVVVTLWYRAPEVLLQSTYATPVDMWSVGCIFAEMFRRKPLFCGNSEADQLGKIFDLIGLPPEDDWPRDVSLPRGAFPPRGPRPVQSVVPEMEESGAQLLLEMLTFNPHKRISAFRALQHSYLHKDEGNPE
CDK4, sequence (P24385 whole entry partner, looked up): as the sequence (P24385 whole entry partner, looked up) above

Regarding `CCN1CCN(Cc2ccc(Nc3ncc4c(n3)-c3c(cnn3C(C)C)CC4)nc2)CC1` [Compound P-10], the half-maximal inhibitory concentration (IC50) (usually the concentration that gives 50% inhibition) against CDK6 was determined as 132 nM; on CDK4, 16 nM.
On the same counts, the results for `Cc1nc2c(n1C1CC1)-c1nc(Nc3ccc(N4CCNCC4)cn3)ncc1C2` [Compound P-11] are 165 nM and 43 nM.
On the same counts, the results for `CCc1nc2c(n1C(C)C)-c1nc(Nc3ccc(N4CCNCC4)cn3)ncc1C2` [Compound P-22] are 43 nM and 20 nM.
On the same counts, the results for `CC(C)c1c2c(nn1C(F)F)Cc1cnc(Nc3ccc(N4CCNCC4)cn3)nc1-2` [Compound P-27] are 8 nM and 6 nM.
Regarding `Cc1nc2c(n1CC1CC1)-c1nc(Nc3ccc(N4CCNCC4)cn3)ncc1C2` [Compound P-28], the IC50 at CDK6 was found to be 121 nM; at CDK4, 41 nM.
On the same counts, the results for `c1cc(Nc2ncc3c(n2)-c2c(cnn2C2CCCCC2)CC3)ncc1N1CCNCC1` [Compound P-35] are 252 nM and 74 nM.
For `c1cc(Nc2ncc3c(n2)-c2nn(C4CCCC4)cc2CC3)ncc1N1CCNCC1` [Compound P-36], the IC50 on CDK6 came to 714 nM; on CDK4 it was 138 nM.
`c1cc(Nc2ncc3c(n2)-c2c(cnn2C2CCOC2)CC3)ncc1N1CCNCC1` (stereo not drawn) [Compound P-37]: the half-inhibitory concentration (IC50) against CDK6 came to 362 nM; against CDK4, 41 nM.
The like results for `CCN1CCN(Cc2ccc(Nc3ncc4c(n3)-c3c(nc(C)n3C(C)C)CC4)nc2)CC1` [Compound P-41] were, in that order, 44 nM and 5 nM.
Consider `Cc1nn(C2CCCC2)c2c1CCc1cnc(Nc3ccc(N4CCNCC4)cn3)nc1-2` [Compound P-43], for which the IC50 against CDK6 was 46 nM; against CDK4, 9 nM.
As to `CC(C)c1c2c(nn1C)CC(C)(C)c1cnc(Nc3ccc(N4CCNCC4)cn3)nc1-2` [Compound P-44], the concentration for half-maximal inhibition (IC50) at CDK6 turned out to be 415 nM; against CDK4, 173 nM.
On the same counts, the results for `CCN1CCN(Cc2ccc(Nc3ncc4c(n3)-c3c(nn(CC)c3C(C)C)C4)nc2)CC1` [Compound P-45] are 451 nM and 37 nM.
On the same counts, the results for `CCn1nc2c(c1C(C)C)-c1nc(Nc3ccc(N4CCNCC4)cn3)ncc1C(C)(C)C2` [Compound P-48] are 897 nM and 97 nM.
On the same counts, the results for `CCn1nc2c(c1C(C)C)-c1nc(Nc3ccc(N4CCNCC4)cn3)ncc1OC2` [Compound P-49] are 70 nM and 7 nM.
`CCN1CCN(Cc2ccc(Nc3ncc4c(n3)-c3c(nn(CC)c3C(C)C)C(C)(C)C4)nc2)CC1` [Compound P-50]: the IC50 against CDK6 turned out to be 40 nM; against CDK4 it was 6 nM.
On the same counts, the results for `CC(C)n1ncc2c1-c1nc(Nc3ccc(N4CCNCC4)cn3)ncc1CC2(C)C` [Compound P-51] are 117 nM and 42 nM.
The like results for `CC(C)n1nc(C#N)c2c1-c1nc(Nc3ccc(N4CCNCC4)cn3)ncc1CC2` [Compound P-52, 1-isopropyl-8-(5-(piperazin-1-yl)pyridin-2-ylamino)-4,5-dihydro-1H-pyrazolo[4,3-H]quinazolin-3-carbonitrile] were, in that order, 33 nM and 6 nM.
Consider `CC(=O)C1(C)Cc2cnc(Nc3ccc(N4CCNCC4)cn3)nc2-c2c1nn(C)c2C(C)C` (stereo not drawn) [Compound P-55], for which the IC50 came to 523 nM against CDK6 and 128 nM against CDK4.
Consider `CC(C)c1c2c(nn1C)CC1(CC1)c1cnc(Nc3ccc(N4CCNCC4)cn3)nc1-2` [Compound P-56], for which the results for the 50% inhibitory concentration (IC50) against CDK6 and at CDK4 were 831 nM and 103 nM, respectively.
Regarding `CC(C)c1c2c(nn1C)C(C)(C(C)O)Cc1cnc(Nc3ccc(N4CCNCC4)cn3)nc1-2` (stereo not drawn) [Compound P-60, 1-(9-isopropyl-6,8-dimethyl-2-(5-(piperazin-1-yl)pyridin-2-ylamino)-6,8-dihydro-5H-pyrazolo[3,4-H]quinazolin-6-yl)ethanol], the concentration for half-maximal inhibition (IC50) came to 762 nM against CDK6 and 160 nM against CDK4.
On the same counts, the results for `CC(=O)C1(C)Cc2cnc(Nc3ccc(N4CCNCC4)cn3)nc2-c2c1ncn2C(C)C` (stereo not drawn) [Compound P-63] are 160 nM and 56 nM.

The values above are taken from patent US11168088B2 (SHANGHAI HAIYAN PHARMACEUTICAL TECHNOLOGY CO., LTD., priority 2016, dated 2021).
